# Source: publication PMC3626250, “Effects of Borneol on Pharmacokinetics and Tissue Distribution of Notoginsenoside R1 and Ginsenosides Rg1 and Re in Panax notoginseng in Rabbits” (Journal of Analytical Methods in Chemistry, 2013)
# Like-named read-outs stand apart in the source and are kept apart here.
# How the values were obtained:
# [1] = Tissue distribution study in rabbits after oral Panax notoginseng extract with or without Borneol; type: in vivo, New Zealand rabbits; settings: New Zealand, rabbit; for Kp at 1 h: oral, Borneol combined with Panax notoginseng; for concentration at 0.5 h / concentration at 1 h / concentration at 3 h: po; for concentration at 3 h: 3 mL·kg^−1, 3.0 h
# Description: Frozen plasma and tissue samples were thawed in a water bath at 37°C and were then vortexed followed by centrifuging at 5000 r·min^−1 for 5 min. An aliquot of 1.0 mL of the supernatant from each sample was loaded onto C18 Bond Elute Solid phase extraction (SPE) cartridges (1000 mg, 1 cc reservoir, Varian, Harbor City, CA, USA) pretreated with 2.0 mL hexane, isopropanol, methanol, and water, sequentially. The SPE cartridges were then washed with 1.0 mL water, 20% methanol/water solution, 40% methanol/water solution, and 60% methanol/water solution, sequentially. Finally, analytes were eluted twice with 1.0 mL of 70% methanol/water solution. The eluant was evaporated to dryness under nitrogen. The residues were then reconstituted in 1.0 mL mobile phase. An aliquot of 10 μL was injected into the LC-MS system.
# One group of rabbits (n = 18) was orally administered a dose of 3.0 mL·kg^−1 Panax notoginseng extract, while another group of rabbits (n = 18) was orally given 3.0 mL·kg^−1 Panax notoginseng extract combined with Borneol. At 0.5, 1, and 3 h after administration, blood samples were collected from the central ear artery of six rabbits from each group, and the heart, liver, lung, kidney, and brain were immediately removed after animals were sacrificed by decapitation. An accurately weighed amount of tissue (1 g) was collected to be rinsed, dried, minced, and homogenized (400 r·min^−1) in normal saline (1.5 mL). All of the samples were stored at −70°C and were processed prior to analysis with the proposed method as described in Section 2.6.
# [2] = Transport studies across Caco-2 monolayers (P app, efflux ratio); type: in vitro ADME; settings: human
# Caco-2 cells = assay: MTT cytotoxicity assay toward Caco-2 cells; type: cell-based; settings: chosen for transport study
smiles,measurement,setting,value
"CC(C)=CCC[C@](C)(O[C@@H]1O[C@H](CO)[C@@H](O)[C@H](O)[C@H]1O)[C@H]1CC[C@]2(C)[C@@H]1[C@H](O)C[C@@H]1[C@@]3(C)CC[C@H](O)C(C)(C)[C@@H]3[C@@H](O[C@@H]3O[C@H](CO)[C@@H](O)[C@H](O)[C@H]3O[C@@H]3O[C@@H](C)[C@H](O)[C@@H](O)[C@H]3O)C[C@]12C [GRe, ginsenoside Re]",Kp at 1 h,"[1]; brain, peak levels at 1.0 h, read-out: level in brain, fold higher than the plasma concentrations",1.14
same,concentration at 0.5 h,"[1]; brain, 3 mL·kg^−1, 0.5 h, oral Panax notoginseng with Borneol, read-out: Concentration in brain",1800 ± 420 ng/g
same,concentration at 0.5 h,"[1]; brain, 3 mL·kg^−1, 0.5 h, oral Panax notoginseng, read-out: Concentration in brain",1050 ± 420 ng/g
same,concentration at 1 h,"[1]; brain, 3 mL·kg^−1, 1.0 h, oral Panax notoginseng, read-out: Concentration in brain",1210 ± 280 ng/g
same,concentration at 3 h,"[1]; brain, oral Panax notoginseng with Borneol, read-out: Concentration in brain",1650 ± 230 ng/g
same,concentration at 3 h,"[1]; brain, oral Panax notoginseng, read-out: Concentration in brain",630 ± 120 ng/g
same,concentration at 1 h,"[1]; brain, 1.0 h, oral Panax notoginseng with Borneol, read-out: Concentration in brain",2760 ± 630 ng/g
same,Kp at 1 h,"[1]; heart, peak levels at 1.0 h, read-out: level in heart, fold higher than the plasma concentrations",1.35
same,concentration at 0.5 h,"[1]; heart, 3 mL·kg^−1, 0.5 h, oral Panax notoginseng with Borneol, read-out: Concentration in heart",2810 ± 740 ng/g
same,concentration at 0.5 h,"[1]; heart, 3 mL·kg^−1, 0.5 h, oral Panax notoginseng, read-out: Concentration in heart",1650 ± 530 ng/g
same,concentration at 1 h,"[1]; heart, 3 mL·kg^−1, 1.0 h, oral Panax notoginseng, read-out: Concentration in heart",2110 ± 280 ng/g
same,concentration at 3 h,"[1]; heart, oral Panax notoginseng with Borneol, read-out: Concentration in heart",2240 ± 540 ng/g
same,concentration at 3 h,"[1]; heart, oral Panax notoginseng, read-out: Concentration in heart",1140 ± 130 ng/g
same,concentration at 1 h,"[1]; heart, 1.0 h, oral Panax notoginseng with Borneol, read-out: Concentration in heart",3280 ± 430 ng/g
same,Kp at 1 h,"[1]; kidney, at 1.0 h, read-out: level in kidney, fold higher than the plasma concentrations",1
same,concentration at 0.5 h,"[1]; kidney, 3 mL·kg^−1, 0.5 h, oral Panax notoginseng with Borneol, read-out: Concentration in kidney",2840 ± 530 ng/g
same,concentration at 0.5 h,"[1]; kidney, 3 mL·kg^−1, 0.5 h, oral Panax notoginseng, read-out: Concentration in kidney",1630 ± 180 ng/g
same,concentration at 1 h,"[1]; kidney, 3 mL·kg^−1, 1.0 h, oral Panax notoginseng, read-out: Concentration in kidney",1530 ± 220 ng/g
same,concentration at 3 h,"[1]; kidney, oral Panax notoginseng with Borneol, read-out: Concentration in kidney",1610 ± 450 ng/g
same,concentration at 3 h,"[1]; kidney, oral Panax notoginseng, read-out: Concentration in kidney",1150 ± 130 ng/g
same,concentration at 1 h,"[1]; kidney, 1.0 h, oral Panax notoginseng with Borneol, read-out: Concentration in kidney",2430 ± 290 ng/g
same,Kp at 1 h,"[1]; liver, peak levels at 1.0 h, read-out: level in liver, fold higher than the plasma concentrations",1.97
same,concentration at 0.5 h,"[1]; liver, 3 mL·kg^−1, 0.5 h, oral Panax notoginseng with Borneol, read-out: Concentration in liver",3600 ± 460 ng/g
same,concentration at 0.5 h,"[1]; liver, 3 mL·kg^−1, 0.5 h, oral Panax notoginseng, read-out: Concentration in liver",990 ± 330 ng/g
same,concentration at 1 h,"[1]; liver, 3 mL·kg^−1, 1.0 h, oral Panax notoginseng, read-out: Concentration in liver",1300 ± 250 ng/g
same,concentration at 3 h,"[1]; liver, oral Panax notoginseng with Borneol, read-out: Concentration in liver",2630 ± 810 ng/g
same,concentration at 3 h,"[1]; liver, oral Panax notoginseng, read-out: Concentration in liver",690 ± 110 ng/g
same,concentration at 1 h,"[1]; liver, 1.0 h, oral Panax notoginseng with Borneol, read-out: Concentration in liver",4770 ± 420 ng/g
same,Kp at 1 h,"[1]; lung, peak levels at 1.0 h, read-out: level in lung, fold higher than the plasma concentrations",1.24
same,concentration at 0.5 h,"[1]; lung, 3 mL·kg^−1, 0.5 h, oral Panax notoginseng with Borneol, read-out: Concentration in lung",2480 ± 690 ng/g
same,concentration at 0.5 h,"[1]; lung, 3 mL·kg^−1, 0.5 h, oral Panax notoginseng, read-out: Concentration in lung",700 ± 410 ng/g
same,concentration at 1 h,"[1]; lung, 3 mL·kg^−1, 1.0 h, oral Panax notoginseng, read-out: Concentration in lung",920 ± 130 ng/g
same,concentration at 3 h,"[1]; lung, oral Panax notoginseng with Borneol, read-out: Concentration in lung",1530 ± 450 ng/g
same,concentration at 3 h,"[1]; lung, oral Panax notoginseng, read-out: Concentration in lung",310 ± 440 ng/g
same,concentration at 1 h,"[1]; lung, 1.0 h, oral Panax notoginseng with Borneol, read-out: Concentration in lung",2990 ± 170 ng/g
same,concentration at 0.5 h,"[1]; plasma, 3 mL·kg^−1, 0.5 h, oral Panax notoginseng, read-out: Concentration in plasma",1.78 ± 0.11 µg/mL
same,concentration at 1 h,"[1]; plasma, 3 mL·kg^−1, 1.0 h, oral Panax notoginseng, read-out: Concentration in plasma",1.9 ± 0.15 µg/mL
same,concentration at 3 h,"[1]; plasma, oral Panax notoginseng with Borneol, read-out: Concentration in plasma",0.87 ± 0.04 µg/mL
same,concentration at 3 h,"[1]; plasma, oral Panax notoginseng, read-out: Concentration in plasma",0.79 ± 0.02 µg/mL
same,concentration at 0.5 h,"[1]; plasma, 0.5 h, oral Panax notoginseng with Borneol, read-out: Concentration in plasma",2.68 ± 0.13 µg/mL
same,concentration at 1 h,"[1]; plasma, 1.0 h, oral Panax notoginseng with Borneol, read-out: Concentration in plasma",2.42 ± 0.08 µg/mL
same,"efflux ratio at 120 min, 500 μM","[2]; Caco-2, Caco-2 monolayers, read-out: efflux ratios (Er)",1 to 1.1
same,"efflux ratio at 120 min, 500 μM","[2]; Caco-2, efflux ratio P app(basolateral-apical)/P app(apical-basolateral), with or without 200 μM Borneol (see label), read-out: E r",1.05
same,"Papp A→B at 120 min, 500 μM","[2]; Caco-2 Model, 500 μM compound, with or without 200 μM Borneol (see label), read-out: P app (apical to basolateral)",5.46 ± 0.4 nm/s
same,"Papp B→A at 120 min, 500 μM","[2]; Caco-2 Model, 500 μM compound, with or without 200 μM Borneol (see label), read-out: P app (basolateral to apical)",5.73 ± 0.37 nm/s
same,Noncytotoxic concentration,Caco-2 cells,500 µM
